# How the values were obtained:
# [1] = test system: glucose-induced vascular dysfunction; conditions: cited from earlier work; for prevention of vascular dysfunction (active / inactive) / potency on vascular dysfunction relative to native C-peptide: skin chamber granulation tissue model in rats; for normalization (%) of 30 mM glucose-induced vascular dysfunction: rats, FIG. 1 adapted from Ido et al. 1997
# [2] = test system: human renal tubular cells; conditions: cited from earlier work
# [3] = test system: cell membrane-bound C-peptide; conditions: cited from earlier work
# [4] = test system: MAP kinase signaling pathways; conditions: cited from earlier work
# CD4+ immune cells = assay: classical Boyden chamber experiment, migration of CD4+ immune cells; assay type: cell-based; conditions: V14-peptide at 1.3 microM; C-peptide at 10 nM
# Text: Moreover, additional examples of fragments of the human C-peptide are provided herein and ^14, all bearing a mid-portion hexapeptide 12 SEQ ID NO:34 (LGGGPG) 17, that all prevented vascular dysfunction whereas other human C-peptide fragments, wherein the hexapeptide mid-portion was disrupted, were found not active. […] Human C-peptide and its xGxxPG containing fragments may thus be considered an unexpected species of the genus of a larger class of peptides: elastin peptides capable of elastin receptor activation, whereby excess C-peptide may be meddling with elastin receptor mediated tissue repair, modulating chronic-low grade inflammation, IR and hypertension. […] This provides a substantial jump in our understanding of the causes of metabolic syndrome and other lifestyle- or age-related conditions of IR. […] It is provided to do these tests with synthetic human C-peptide variants or fragments, provided with or without the sequence GxxP, to study binding, including classical elastin receptor antagonist V14 peptide to study inhibition of binding. Similarly, one can do the C-peptide tests in a skin chamber granulation tissue model of vascular function ^14, or test synthetic, inducibly or constitutively expressed C-peptide in established models of atherosclerosis, Neu-1 mediated IR or PPCA mediated hypertension ^7-9.
# bioactivity of C-peptide = assay: preliminary in-vitro inhibition of bioactivity of C-peptide; conditions: preliminary in-vitro results
# Na^+K^+ATPase = conditions: rat renal tubule cells; cited from earlier work
# [5] = target: human elastin receptor (elastin binding protein, EBP) on CD4+ immune cells (human)
substance,measurement,setting,value
EVEDPQVPQLELGGGPEAGDLQTLALEVARQ [Rat C-peptide],prevention of vascular dysfunction (active / inactive),[1],active
DLQVGQVELGGGPGAGSLQPL [SEQ ID NO:20],normalization (%) of 30 mM glucose-induced vascular dysfunction,[1],significant normalization
EGSLQ [SEQ ID NO:6],intracellular Ca2+,[2],may induce intracellular Ca2+ increases
same,displacement of cell membrane-bound C-peptide,[3],displaces
same,MAP kinase signaling pathways,[4],stimulates
EAENPQAGAVELGGGLGGLQALALEGPPQ [pig C-peptide],prevention of vascular dysfunction (active / inactive),[1],inactive
GGGPGAG [SEQ ID NO:8],normalization (%) of 30 mM glucose-induced vascular dysfunction,[1],normalize
EVARQ [SEQ ID NO:7],intracellular Ca2+,[2],may induce intracellular Ca2+ increases
VVGSPSAQDEASPL [V14-peptide],"C-peptide-induced CD4-migration inhibited, antagonized and diminished",CD4+ immune cells,> 50%
same,inhibition of bioactivity of C-peptide,bioactivity of C-peptide,inhibition
ELGGGPGAG [SEQ ID NO:9],Na^+K^+ATPase activity,Na^+K^+ATPase,stimulate
VGQVELGGGPGAGSLQPL [SEQ ID NO:175],normalization (%) of 30 mM glucose-induced vascular dysfunction,[1],significant normalization
LGGGPGAGSLQPLALEGSLQ [SEQ ID NO:14],normalization (%) of 30 mM glucose-induced vascular dysfunction,[1],significant normalization
DLQVGQVELGGGPGAGSLQPLALEGSLQ [SEQ ID NO:10],normalization (%) of 30 mM glucose-induced vascular dysfunction,[1],significant normalization
ELGGGPGAGSLQPL [SEQ ID NO:176],normalization (%) of 30 mM glucose-induced vascular dysfunction,[1],significant normalization
D--1EAEDLQVGQVELGGGPGAGSLQPLALEGSLQ31 [enantio C-peptide],potency on vascular dysfunction relative to native C-peptide,[1],equipotent to native C-peptide
human C-peptide,migration of CD4+ immune cells in a classical Boyden chamber experiment (% increase of migration),[5],100
GQVELGGGPGAGSLQPLALEGSLQ [SEQ ID NO:13],normalization (%) of 30 mM glucose-induced vascular dysfunction,[1],significant normalization
QLSGELALPQLSGAGPGGGLEVQGVQLDEAE (retro C-peptide),potency on vascular dysfunction relative to native C-peptide,[1],equipotent to native C-peptide
EAEDLQVGQVELGGGPGAGSLQPL (EAEDLQVGQVELGGGPGAGSLQPLAL) [SEQ ID NO:17],normalization (%) of 30 mM glucose-induced vascular dysfunction,[1],significant normalization

# — US20220009988A1, “PEPTIDE MODULATORS OF THE INTERACTION BETWEEN HUMAN C-PEPTIDE AND HUMAN ELASTIN RECEPTOR FOR THERAPEUTIC USE” (Biotempt B.V., priority 2017, published 2022)
